Usually solubility (kinetic) stands for solubility judged after dilution from a stock solution rather than from solid.

SMILES strings stand for the structures. Values after ≈ are worked out from the molar mass of the structure shown.

Data on 104 compounds can be found in PubChem BioAssay AID1996.

The conditions of this data set: buffer; pH 7.4; 200.0 µM.
`Cc1ccc(NC(=O)C23CCC(C)(C(=O)[C@H]2Br)C3(C)C)cc1` (some centres undefined) gave a kinetic solubility of 43.2 µg/mL (≈ 119 µM).
For `Nc1nc(Nc2ccccc2F)nc(NCCO)c1[N+](=O)[O-]` the value was 45.8 µg/mL (≈ 149 µM); for `COc1ccc(CNC(=O)CCC(=O)Nc2cccnc2)cc1`, 42.3 µg/mL (≈ 135 µM); for `O=C(COC(=O)/C=C/c1ccc(Cl)cc1Cl)NCC1CCCO1` (centres undefined), 10.4 µg/mL (≈ 29 µM).
To `O=C(COC(=O)C1CC1)NCCc1ccccc1` belongs > 37.1 µg/mL; to `O=C(c1ccc(Cl)c(S(=O)(=O)N2CCc3ccccc32)c1)N1CCN(c2ccccc2O)CC1`, 11.3 µg/mL (≈ 22.7 µM).
To `Nc1ncnc2c1ncn2C1OC(C(=O)NC2CC2)C(O)C1O` (centres undefined) belongs > 48 µg/mL; to `O=C(Nc1ccc(-c2ccccc2)cc1)c1ccccc1`, 1 µg/mL (≈ 3.66 µM); to `COc1ccc(NC(=O)Nc2c(SC)nsc2SC)cc1`, 1.8 µg/mL (≈ 5.27 µM).
`CC(C)S(=O)(=O)c1csc(NC(=O)Nc2cc(Cl)ccc2Cl)c1Cl`: the kinetic solubility is < 0.5 µg/mL.
For `O=C(CN1C(=O)c2ccccc2C1=O)N1CCN=C1c1ccccc1` the value was > 50 µg/mL.
To `Cc1sc(N)nc1-c1ccc2c(c1)OCCO2` belongs 19.5 µg/mL (≈ 78.5 µM).
In the case of `Cc1nc2ccccc2nc1OCc1cccc([N+](=O)[O-])c1`, the kinetic solubility amounted to 2 µg/mL (≈ 6.77 µM).
To `O=S(=O)(c1ccc(-c2ccon2)s1)N1CCOCC1` belongs > 45.1 µg/mL; to `O=C(NCC1CCCO1)c1csc(Nc2cccc3ccccc23)n1` (centres undefined), 28.5 µg/mL (≈ 80.6 µM); to `Nc1nc2ccccc2n1CCOc1ccc(Br)cc1`, 27.2 µg/mL (≈ 81.9 µM).
For `O=C(COC(=O)Cc1ccsc1)Nc1ccc(Cl)cc1F` the value was 47.7 µg/mL (≈ 146 µM); for `Cl.O=C(Nc1cccc(F)c1)[C@@H]1CCCN1`, > 36.7 µg/mL; for `NCCCS(=O)(=O)O`, < 0.3 µg/mL.
`COC(=O)c1sccc1NC(=O)C1CCCCC1C(=O)O` (centres undefined) had a kinetic solubility of 42.1 µg/mL (≈ 135 µM).
To `C/C=C/C(=O)N1c2ccc(C)cc2C(C)=CC1(C)C` belongs 1.2 µg/mL (≈ 4.7 µM); to `O=C1CSC(c2cccc([N+](=O)[O-])c2)N1c1ccccc1` (centres undefined), 41.4 µg/mL (≈ 138 µM); to `Cc1ccc(C(=O)N2CCN(c3ncccn3)CC2)cc1`, > 42.4 µg/mL.
On to `COc1ccc(N2CCN(C(=O)c3cccnc3)CC2)c([N+](=O)[O-])c1`, for which the solubility (kinetic) came to 36.6 µg/mL (≈ 107 µM).
To `O=C(c1ccc(F)cc1Cl)N1CCC2(CC1)OCCO2` belongs > 45 µg/mL.
Consider `Cc1[nH]c2ccc(C(=O)NC3CCCC3)cc2c1C`, for which the solubility (kinetic) is > 38.5 µg/mL.
With `CN(CC(=O)O)S(=O)(=O)c1ccc2[nH]c(=O)c(=O)[nH]c2c1`, the kinetic solubility is > 47 µg/mL.
Consider `O=C(CSc1nnc(C2CC2)n1C1CC1)c1cccs1`, for which the kinetic solubility was > 45.8 µg/mL.
For `CCn1c(SCC(=O)NCC2CCCO2)nc2ccccc21` (centres undefined) the value was > 47.9 µg/mL; for `Cc1cc(=O)oc(C)c1C(=O)Nc1ccc(N(C)C)cc1`, > 42.9 µg/mL; for `Cn1ccnc1SCC(=O)Nc1cccc([N+](=O)[O-])c1`, 42.4 µg/mL (≈ 145 µM).
For `CSc1nsc(SCC(=O)Nc2ccc(O)c(C(=O)O)c2)n1` the value was > 53.6 µg/mL.
For `Cc1ccc(C(C)C)cc1OCC(=O)NC1CCCCCCC1` the value was < 0.7 µg/mL.
Consider `CC(NCc1ccccc1O)c1ccccc1` (centres undefined), for which the solubility (kinetic) is > 34.1 µg/mL.
For `CCN(CC(=O)NCc1cccs1)C(=O)c1cccc(S(=O)(=O)N(C)C)c1` the value was > 61.4 µg/mL; for `COc1ccc(C(=O)CN2C(=O)NC3(CCc4ccccc43)C2=O)cc1` (centres undefined), 25.3 µg/mL (≈ 72.2 µM); for `Fc1cccc(Cc2noc(CN3CCOCC3)n2)c1`, > 41.6 µg/mL.
To `CCN(CC)P(=O)(c1ccccc1)c1c(C)nc2ccccn12` (centres undefined) belongs > 49.1 µg/mL.
With `Cc1cc(C(=O)O)ccc1NCc1ccncc1`, the kinetic solubility was > 36.3 µg/mL.
`O=C(Nc1ccc(F)cc1)c1ccc2[nH]c(=O)c(=O)[nH]c2c1`: the kinetic solubility is > 44.9 µg/mL.
To `Cc1cc(N)ccc1NC(=O)CN1CCCC1` belongs 23.1 µg/mL (≈ 99 µM); to `CC1CCCN(C(=O)c2ccc3c(c2)OCCO3)C1` (centres undefined), > 39.2 µg/mL.
To `COc1cc(C=O)ccc1OCc1ccncc1` belongs 35.2 µg/mL (≈ 145 µM); to `COc1ccc(C)cc1NC(=O)Nc1ccncc1`, 4.6 µg/mL (≈ 17.9 µM).
For `Cc1cc(NS(=O)(=O)c2ccc(C(C)C)cc2)no1` the value was 40.2 µg/mL (≈ 143 µM); for `CN(CC1CCCN(CCc2ccc(F)cc2)C1)C(=O)CCC(F)(F)F` (centres undefined), 48.5 µg/mL (≈ 130 µM).
`CN(C)C=NC(=O)c1cc(C(=O)c2ccc(F)cc2)c[nH]1`: the solubility (kinetic) is > 43.1 µg/mL.
In the case of `CC(C)(C)c1cc(CN(CCO)CCO)c(O)c(C(C)(C)C)c1`, the solubility (kinetic) came to 38.7 µg/mL (≈ 120 µM).
For `COc1ccc(C(=O)NC(=S)NC(C)c2ccccc2)cc1` (centres undefined) the value was 2.6 µg/mL (≈ 8.27 µM).
Turning to `CN(C)S(=O)(=O)c1cccc(NC(=O)Cc2ccsc2)c1`, the kinetic solubility was > 48.7 µg/mL.
To `CCSc1nc2ccccc2c(=O)n1Cc1ccc(F)cc1` belongs < 0.3 µg/mL; to `CCN(CC)S(=O)(=O)c1cccc(C(=O)N[C@H](C(=O)NC2=NCCS2)C(C)C)c1`, 64.5 µg/mL (≈ 146 µM); to `Cc1ccc2c(N)c(C(=O)c3ccccc3)sc2n1`, 3.1 µg/mL (≈ 11.6 µM).
On to `C=Cc1cccc(NC(=O)c2ccc(NC(=O)c3ccco3)cc2)c1`, for which the solubility (kinetic) is 3.1 µg/mL (≈ 9.33 µM).
Turning to `O=C(Cc1ccccc1)NC(C(=O)O)C(O)c1ccc([N+](=O)[O-])cc1` (centres undefined), the kinetic solubility is > 51.6 µg/mL.
The compound `O=CNCCc1nc2ccccc2n1CCc1ccccc1` registered a kinetic solubility of 41 µg/mL (≈ 140 µM).
As for `COc1ccc(NC(=O)c2ccccc2NC(=O)c2ccco2)cc1`, the solubility (kinetic) is < 0.4 µg/mL.
Regarding `O=C(NCc1ccco1)/C(=C\C=C\c1ccccc1)NC(=O)c1ccco1`, the kinetic solubility was > 54.4 µg/mL.
Turning to `CC(C)N1CC(C(=O)Nc2ccc(C#N)cc2)CC1=O` (centres undefined), the kinetic solubility was > 40.7 µg/mL.
In the case of `CC(=O)N1CCN(C(=O)c2ccc3c(c2)OCCO3)CC1`, the solubility (kinetic) was > 43.5 µg/mL.
`Cn1c(/C(C#N)=C(\O)c2cccc(F)c2)nc2ccccc21`: the kinetic solubility was found to be 0.3 µg/mL (≈ 1.02 µM).
The compound `COC(=O)c1ccc(S(=O)(=O)NCc2ccco2)n1C` registered a kinetic solubility of 44.3 µg/mL (≈ 148 µM).
To `CCc1ccccc1OCC(=O)OCC(=O)N1CC(=O)Nc2ccccc21` belongs 35.7 µg/mL (≈ 96.9 µM).
Compound `O=C(CNC(=O)c1ccc2ccccc2c1)NCc1ccc(F)cc1` came in with a solubility (kinetic) of 1.9 µg/mL (≈ 5.65 µM).
For `Nc1cc(S(=O)(=O)Nc2ccccc2Cl)ccc1N1CCCCC1` the value was 13.2 µg/mL (≈ 36.1 µM); for `CCc1cc2cccc(C)c2nc1SCC(=O)NC1CCCC1`, < 0.4 µg/mL; for `CC(=O)Oc1ccc2c(=O)oc(-c3ccccc3)nc2c1`, 3.1 µg/mL (≈ 11 µM).
To `NC(=O)NCC(c1ccccc1)C1CCCCC1` (centres undefined) belongs 33.4 µg/mL (≈ 136 µM); to `CC1CCCCC1NC(=O)COC(=O)c1ccc2c(=O)n3c(nc2c1)CCC3` (centres undefined), 22.2 µg/mL (≈ 57.9 µM).
To `OC(COc1ccc(Cl)cc1)CN1CCN(c2ccccn2)CC1` (centres undefined) belongs 33.8 µg/mL (≈ 97.2 µM); to `CCc1cc2c(NC3CCCC3)ncnc2s1.Cl`, 30.8 µg/mL.
In turn, `Cc1nc(Nc2nc3ccccc3o2)nc(C)c1C` returned a solubility (kinetic) of 15.8 µg/mL (≈ 62.1 µM).
For `Cc1ccsc1C(=O)NCCc1nnc2ccccn12`, the solubility (kinetic) is > 43 µg/mL.
To `O=c1c2[nH]c3ccccc3c2nc2n1CCS2` belongs 4.5 µg/mL (≈ 18.5 µM); to `CCC(C)Nc1nc(N)c([N+](=O)[O-])c(NCc2ccccc2)n1` (centres undefined), 3.6 µg/mL (≈ 11.4 µM); to `CCOC(=O)c1cc2c(=O)[nH]c(C(Cl)(Cl)Cl)nc2o1`, > 48.8 µg/mL.
For `CC1CCN(C(=O)c2ccc([N+](=O)[O-])o2)CC1` the value was > 35.7 µg/mL; for `CCOC(=O)C1CCN(C(=O)c2cc3cc(C)ccc3[nH]2)CC1`, 37 µg/mL (≈ 118 µM).
The compound `NC(=O)c1ccc(NC(=O)COC(=O)CC2CC3CCC2C3)cc1` (centres undefined) had a kinetic solubility of 13 µg/mL (≈ 39.3 µM).
For `Cc1cccc2cc(C#N)c(NCc3ccccc3)nc12` the value was 11.4 µg/mL (≈ 41.7 µM); for `O=C(O)c1ccc(NS(=O)(=O)c2cc(Cl)sc2Cl)cc1`, > 52.8 µg/mL.
`O=C(Nc1cc([N+](=O)[O-])ccc1N1CCCC1)c1ccccc1`: the kinetic solubility is 1.5 µg/mL (≈ 4.82 µM).
In turn, `CN(C)CCNC(=O)c1sc2cccc(F)c2c1Cl` came in with a solubility (kinetic) of 40.1 µg/mL (≈ 133 µM).
To `CNc1ccc(/C=C2\CSc3ccccc3C2=O)cc1[N+](=O)[O-]` belongs 3 µg/mL (≈ 9.19 µM); to `Cc1ccc(NC(=O)Cn2ccc(=O)[nH]c2=O)cc1`, > 38.9 µg/mL; to `Cc1nc2ccc(NC(=O)c3ccc(Br)o3)cc2s1`, 5.1 µg/mL (≈ 15.1 µM).
To `Cc1ccc(C)c(NC(=O)CCC(=O)N/N=C/c2cccnc2)c1` belongs > 48.7 µg/mL.
For `CN1CCN(c2ccc(CNS(=O)(=O)Cc3ccc(Cl)cc3)cc2)CC1` the value was 2.8 µg/mL (≈ 7.11 µM).
For `COc1cc(OC)cc(C(=O)Nc2ccc(Nc3ccccc3)cc2)c1`, the solubility (kinetic) was 2.5 µg/mL (≈ 7.18 µM).
For the compound `COc1ccc(OC)c(/C=C/c2c([N+](=O)[O-])c(=O)n(C)c(=O)n2C)c1`, the solubility (kinetic) is 3.4 µg/mL (≈ 9.79 µM).
For the compound `O=C1CSC(=Nc2ccc(O)cc2)N1`, the kinetic solubility is > 31.2 µg/mL.
For `Cc1ccc(CNC(=O)CSc2nc3ccccc3c(=O)n2CC2CCCO2)cc1` (centres undefined) the value was 4.5 µg/mL (≈ 10.6 µM); for `C/C(=N/NC(=O)c1ccccn1)c1ccncc1`, > 36 µg/mL; for `CC(=O)c1cccc(NC(=O)c2ccc(OC3CSC3)cc2)c1`, < 0.7 µg/mL.
With `O=C(Nc1ccccn1)c1cc2ccccc2cc1O`, the solubility (kinetic) was determined as 0.5 µg/mL (≈ 1.89 µM).
For `Cc1ccc(C)n1-c1ccc(C(=O)/C=C/N(C)C)cc1` the value was 25.6 µg/mL (≈ 95.4 µM).
As to `C/C(=N\NC(=O)c1cc(C)nc2ccccc12)c1ccco1`, the kinetic solubility is > 44 µg/mL.
With `CC1(C)CC(=O)c2sc(NS(=O)(=O)c3ccccc3)nc2C1`, the kinetic solubility was found to be 48.9 µg/mL (≈ 145 µM).
To `Cl.c1ccc(OCC2CCNCC2)nc1` belongs 33.7 µg/mL; to `CCOc1ccc(C(=O)Cn2cnc3ccccc3c2=O)cc1`, 8.5 µg/mL (≈ 27.6 µM).
For `CCCCCCCOc1ccc(C2(C)NC(=O)NC2=O)cc1` (centres undefined) the value was 9.3 µg/mL (≈ 30.6 µM); for `CC(C)n1c(Oc2ccc(F)cc2)nc2c1c(=O)n(C)c(=O)n2C`, 8.1 µg/mL (≈ 24.4 µM); for `CN1CCN(C(=S)c2cn(Cc3ccccc3)c3ccccc23)CC1`, 30.8 µg/mL (≈ 88.1 µM).
To `CC(C)(CCl)C(=O)Nc1ccnc(-c2ccncc2)n1` belongs 6 µg/mL (≈ 20.6 µM).
